The results in this text go back to PMC7508162 (Frontiers in Pharmacology, 2020).

One assay deals with T1, NTPDase2 (Homo sapiens, UniProt Q9Y5L3).
T1 sequence (Q9Y5L3 1-495): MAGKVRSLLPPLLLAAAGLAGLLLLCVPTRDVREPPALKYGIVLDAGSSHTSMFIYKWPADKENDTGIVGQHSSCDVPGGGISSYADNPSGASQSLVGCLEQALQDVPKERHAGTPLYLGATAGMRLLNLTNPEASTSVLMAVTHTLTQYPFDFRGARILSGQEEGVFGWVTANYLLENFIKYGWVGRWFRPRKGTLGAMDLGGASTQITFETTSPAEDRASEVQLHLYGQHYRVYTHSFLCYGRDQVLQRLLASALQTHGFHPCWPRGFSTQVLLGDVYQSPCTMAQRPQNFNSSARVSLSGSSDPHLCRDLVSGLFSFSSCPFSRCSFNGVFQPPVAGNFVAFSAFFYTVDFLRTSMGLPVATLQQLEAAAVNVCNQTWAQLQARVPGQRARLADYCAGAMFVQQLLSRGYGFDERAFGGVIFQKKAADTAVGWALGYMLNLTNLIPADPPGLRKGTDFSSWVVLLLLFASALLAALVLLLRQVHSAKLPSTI
In words: Malachite green assay for NTPDase2. The assay is classed as biochemical. The arrangement: expressed in transfected cells; host or cells: COS-7 cell membrane preparations. Particulars: for Ki: ATP 50 µM, recombinant COS-7 cell membrane preparation, read-out: Ki ± SEM. How it is done: (§1) The enzymatic activity assay was determined essentially as previously described ([Cogan et al., 1999]) with a few adaptations. The reaction buffer contained 10 mM HEPES, 2 mM CaCl2, 1 mM MgCl2, pH 7.4 in a final volume of 50 μl in transparent 96-well half area plates. For CD39 (NTPDase1), we made use of human umbilical cord membranes preparations which express high levels of the enzyme. For the other human NTPDase isoenzymes, we had to resort to recombinant expression. Human umbilical cord membrane preparations (250 ng) natively expressing high amounts of CD39, or the respective recombinant COS-7 cell membrane preparations expressing the appropriate NTPDase isoenzyme (ca. 100 ng of protein depending on enzyme activity) ([Sévigny et al., 1997]; [Lecka et al., 2013]) with or without inhibitor were preincubated at 37°C and gentle shaking (Eppendorf Thermomixer comfort at 500 rpm) for 5 min. The amount of enzyme preparation was adjusted to ensure 10–20% of substrate conversion. […] ([Kukulski et al., 2005]). After 15 min of incubation at 37°C with gentle shaking, the reaction was stopped by adding the detection reagents (20 µl malachite green solution, 0.6 mM, and 30 µl ammonium molybdate solution, 20 mM, in sulfuric acid, 1.5 M). The released (inorganic) phosphate was quantified after 20 min of gentle shaking at 25°C by measuring the absorption of the malachite green-phosphomolybdate complex at 600 nm using a BMG PheraStar FS plate reader (BMG Labtech GmbH, Ortenberg, Germany). The corrected absorption was calculated by subtracting the absorption of the negative control samples, which were incubated with denatured enzyme (90°C, 15 min), and the inhibition was calculated as follows:
(§2) % Inhibition=(B−T)/B*100%
(§3) where B is the average corrected absorption of the positive control without inhibitor and T the corrected absorption in the presence of test compound.
(§4) Full concentration-inhibition curves were determined with inhibitor concentrations ranging from 0.1 to 300 µM in the presence of 2% DMSO. Three independent experiments were performed (n = 3) and curves were calculated by the GraphPad Prism 8 software. The Ki value was calculated using the Cheng-Prusoff equation for competitive inhibitors: […]

The target of another assay is T2, NTPDase8 (Homo sapiens, UniProt Q5MY95).
T2 sequence (Q5MY95 1-495): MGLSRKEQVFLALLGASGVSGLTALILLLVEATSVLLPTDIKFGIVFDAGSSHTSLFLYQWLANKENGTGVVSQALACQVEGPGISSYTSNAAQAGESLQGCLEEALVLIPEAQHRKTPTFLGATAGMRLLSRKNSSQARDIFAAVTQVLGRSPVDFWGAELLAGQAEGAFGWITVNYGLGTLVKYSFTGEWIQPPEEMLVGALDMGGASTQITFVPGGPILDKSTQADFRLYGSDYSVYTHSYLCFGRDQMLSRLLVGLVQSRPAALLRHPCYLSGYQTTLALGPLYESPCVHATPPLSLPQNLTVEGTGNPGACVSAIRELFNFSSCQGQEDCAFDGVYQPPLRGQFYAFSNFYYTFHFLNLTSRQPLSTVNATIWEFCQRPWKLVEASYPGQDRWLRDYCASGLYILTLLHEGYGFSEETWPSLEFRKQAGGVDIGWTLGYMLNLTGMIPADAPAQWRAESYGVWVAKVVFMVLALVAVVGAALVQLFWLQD
Briefly: Malachite green assay for NTPDase8. Conditions: for Ki: ATP 50 µM, recombinant COS-7 cell membrane preparation, read-out: Ki ± SEM; for % inhibition: test concentration not given. Set-up: expressed in transfected cells; host or cells: COS-7 cell membrane preparations. Type of assay: biochemical. How it is done: as §1, §2, §3, §4

The Ki is the equilibrium dissociation constant of an inhibitor or competing ligand from its target. Broadly, the % inhibition is the relative decrease from the control value, in per cent. For the compound `CCN(CC)c1ncnc2c1ncn2[C@@H]1O[C@H](COP(=O)(O)OP(=O)(O)C(Br)(Br)P(=O)(O)O)[C@@H](O)[C@H]1O` [ARL67156, (Dibromo((((((2R,3S,4R,5R)-5-(6-(diethylamino)-9H-purin-9-yl)-3,4-dihydroxytetrahydrofuran-2-yl)methoxy)-(hydroxy)-phosphoryl)oxy)(hydroxy)phosphoryl)methyl)-phosphonic Acid, reference compound], the inhibitory constant (Ki) at NTPDase2 (NTPDase2) and on NTPDase8 was over 50 µM in each case. The “% inhibition” value at NTPDase2 (NTPDase2, test concentration not given) was found to be 18%; on NTPDase8, 2%.
For `CCCCSc1nc2c(N)ncnc2n1[C@@H]1O[C@H](COP(=O)(O)OP(=O)(O)C(Br)(Br)P(=O)(O)O)[C@@H](O)[C@H]1O` [Compound 31, (((((((2R,3S,4R,5R)-5-(6-Amino-8-(butylthio)-9H-purin-9-yl)-3,4-dihydroxytetrahydrofuran-2-yl)methoxy)(hydroxy)-phosphoryl)oxy)(hydroxy)phosphoryl)dibromomethyl)-phosphonic Acid], on NTPDase2, the “NTPDase2 inhibition (in words)” value is “weakly inhibit”. Besides, the Ki on NTPDase2 (NTPDase2) came out at 22.2 ± 0.5 µM. Further, on NTPDase8, the Ki was over 50 µM and the “% inhibition” value was 2%.
Regarding `CCCCNc1nc2c(NC)ncnc2n1[C@@H]1O[C@H](COP(=O)(O)OP(=O)(O)C(Br)(Br)P(=O)(O)O)[C@@H](O)[C@H]1O` [Compound 33, (Dibromo((((((2R,3S,4R,5R)-5-(8-(butylamino)-6-(methylamino)-9H-purin-9-yl)-3,4-dihydroxy-tetrahydrofuran-2-yl)methoxy)(hydroxy)phosphoryl)oxy)-(hydroxy)phosphoryl)methyl)-phosphonic Acid], at NTPDase2 (NTPDase2), the Ki came out at 78 ± 0.6 µM. In addition, at NTPDase8, the Ki is over 50 µM and the “% inhibition” value was -11%.
